Reference: patent US20210368837A1, “BOEHMERIA NIVEA COMPOSITIONS AND METHODS FOR TASTE MODULATION” (INTERNATIONAL FLAVORS & FRAGRANCES INC., priority 2018, published 2021)

Legend:
[1] = Descriptive sensory evaluation of traumatic acid and 3-dodecenedioic acid in sugar water; settings: 5 ppm in sugar water (4% sucrose), summary statement
Protocol: Sugar water (4% sucrose in drinking water) was prepared and used as a base solution. Traumatic acid (purchased from Cayman Chemical Company) and 3-dodecenedioic acid (isolated from a B. nivea extract) were added to the sugar water and taste descriptive sensory evaluations were performed (Table 2).

[2] = Comparison of sweetness and mouthfeel enhancement and off-flavor masking of sebacic acid with analogs; settings: at 2 ppm; analogs: adipic, pimelic, suberic, undecanedioic, dodecanedioic, 1,11-undecanedicarboxylic, tetradecanedioic, hexadecanedioic acid
[3] = Descriptive sensory evaluation of sebacic acid in different applications
Protocol: Descriptive sensory evaluations were carried out using different amounts of sebacic acid in different applications.

[4] = Descriptive sensory evaluation of traumatic acid in different applications
Protocol: Descriptive sensory evaluations were carried out using different amounts of traumatic acid in different applications.

SMILES | Enhancement of sweetness and mouthfeel of sugar water [1] | Sweetness and mouthfeel enhancement as well as off-flavor masking, compared among dicarboxylic acids [2] | Taste Evaluation ([3]; sebacic acid 40 ppm in 3% Sugar + 0.05% Citric Acid Water Solution) | Taste Evaluation ([3]; sebacic acid 40 ppm in Water) | Taste Evaluation ([4]; traumatic acid 40 ppm in 3% Sugar + 0.05% Citric Acid Water Solution) | Taste Evaluation ([4]; traumatic acid 40 ppm in Water)
O=C(O)CC=CCCCCCCCC(=O)O [3-Dodecenedioic acid, 3-dodecenedioic acid] | enhanced the sweetness and mouthfeel of sugar water | the strongest and the longest-lasting effect | – | – | – | –
O=C(O)CCCCCCCCC(=O)O [Sebacic Acid, decanedioic acid] | – | – | Fatty and oily | Fatty and oily | – | –
O=C(O)C=CCCCCCCCCC(=O)O [Traumatic acid, 2-dodecenedioic acid] | enhanced the sweetness and mouthfeel of sugar water | the strongest and the longest-lasting effect | – | – | Fatty and oily | Fatty and oily
